Experiments:
GST-Xa-hAAK1 = molecular target: T1, GST-Xa-hAAK1 (Homo sapiens, UniProt Q2M2I8); assay: AAK1 Kinase Assay (Caliper LabChip, fluoresceinated peptide substrate); assay type: biochemical; conditions: ATP 22 μM
T1 construct: made in house
Method: The assays were performed in U-bottom 384-well plates. The final assay volume was 30 μl prepared from 15 μl additions of enzyme and substrates (fluoresceinated peptide (5-FAM)-Aha-[…]-NH2 and ATP) and test compounds in assay buffer (10 mM Tris-HCL pH 7.4, 10 mM MgCl2, 0.01% Tween-20 and 1.0 mM DTT). The reactions were initiated by the combination of bacterially expressed, GST-Xa-hAAK1 with substrates and test compounds. The reactions were incubated at room temperature for 3 hours and terminated by adding 60 μl of 35 mM EDTA buffer to each sample. The reactions were analyzed on the Caliper LabChip 3000 (Caliper, Hopkinton, Mass.) by electrophoretic separation of the fluorescent substrate and phosphorylated product. […] The final concentration of reagents in the assays are ATP, 22 μM; (5-FAM)-Aha-[…]-NH2, 1.5 μM; GST-Xa-hAAK1, 3.5 nM; and DMSO, 1.6%. Dose response curves were generated to determine the concentration required inhibiting 50% of kinase activity (IC50). Compounds were dissolved at 10 mM in dimethylsulfoxide (DMSO) and evaluated at eleven concentrations. IC50 values were derived by non-linear regression analysis.

AAK1 (full length human) = molecular target: T2, AAK1 (full length human) (Homo sapiens, UniProt Q2M2I8); assay: HEK281 Cell-Based Assay (HEK293F cells transfected with AAK1 and AP2M1; phospho-mu2 Western blot); conditions: 3 h
T2 construct: HA; expressed in transfected cells; host or cells: HEK293F
Method: HEK293F cells were cultured in media containing DMEM (Gibco, cat. #11965), 10% FBS (SAFC Biosciences, cat. #12103C), 1× GPS (glutamine, penicillin and streptomycin). On day one, cells were plated on a 10 cm dish so that they are ˜80% confluent at time of transfection. Roughly 12 million cells were in a 10 cm dish at time of transfection. On day two, each dish was transfected with 48 ug DNA and 144 μl Lipofectamine 2000 (Invitrogen, cat. #11668-019). The DNA was comprised of a mixture (per 10 cm dish) containing 3 ug AAK1/HA/pIRES (full length human, NCBI accession no. NP_055726.2), 45 μg Flag/AP2MI/pcDNA (full length human), and 1.5 ml OPTI-MEM. The Lipofectamine 2000 is made up of a mixture (per 10 cm dish) containing 144 μl Lipofectamine 2000 and 1.5 ml OPTI-MEM. Each mixture was transferred to individual 15 ml tubes and incubated at RT for 5 minutes, and then the two mixes were combined and incubated at RT for 20 minutes. Growth media was then aspirated from each 10 cm plate and replaced with 10 ml of DMEM+10% FBS (no GPS). Finally, 3 ml DNA/Lipofectamine mix was added to each 10 cm dish and mix gently followed by incubate of plate overnight at 37° C. and 5% CO2.
On day three, compounds were diluted in 100% DMSO at 1000× final concentration, followed by 3-fold serial dilutions for a total of 5 concentrations tested. Four compounds were tested per 10 cm dish. One ul of each compound dilution was then pipetted into a deep-well, 96-well plate, followed by addition of 500 μl DMEM+0.5% FBS into each well for a 2× final concentration of each compound. Cells were resuspended in a 10 cm dish by simple pipetting (HEK293 cells come off the plate that easy at this point) and then transferred to a 50 ml conical tube and pelleted by centrifugation at 1000 rpm for 5 min. Cell pellets were then resuspended in 2.75 ml DMEM+0.5% FBS per 10 cm dish and 100 μl of cell suspension transferred into each well of 96-well TC plate. Finally, 100 μl of 2× compound diluted in DMEM+0.5% FBS was then added into wells containing cell suspension for a 1× final concentration. Plates were then incubated at 37° C. and 5% CO2 for 3 hours followed by transferring of cell suspensions from each well into 12-tube PCR strips. The PCR strips were spun in a tip rack at 1000 rpm for 5 minutes to pellet cells and media was then removed by pipetting without disturbing the cell pellet.
To prepare for Western Blot analysis, cell pellets were resuspend in 40 ul 1× LDS-PAGE sample buffer (Invitrogen, cat. #NP0008)+2× Halt phophatase and protease inhibitor cocktail (Thermo Scientific, cat. #1861284), followed by sonicating each with microtip sonicator set at 5 for 8-10 seconds. Five ul of 10× NuPage Sample Reducing Agent (with […]) was to each sample followed by heat denaturing at 70C for 10 min on PCR machine. A total of 10 μl per sample was loaded into each lane of a 4-20% Tris-Glycine Criterion 26-well gel (Biorad, cat. #345-0034) for the phospho-mu2 blot and 10 μl per lane in a 4-12% Bis-Tris (+MES buffer) NuPAGE 26-well gel (Invitrogen, cat. #WG1403BX10) for the mu2 blot. For controls, 2 ng of phospho-mu2 or 20 ng mu2/Flag proteins were loaded in the last well of each gel. After SDS-PAGE, samples on each gel were transferred to PVDF membrane using an iBlot and membranes were blocked for one hour in TBST+5% milk, followed by wash 3× for 5-10 min with TBST. Criterion gels were probed with rabbit anti-phospho-mu2 (1:5000; a rabbit polyclonal antibody produced by New England Peptide and affinity purified at Lexicon) in TBST+5% BSA, whereas, NuPAGE gels were probed with mouse anti-Flag (1:500; Sigma, cat. #F1804) in TBST+5% milk, and these primary antibodies were incubated overnight at 4° C. on a rocker. […]

T2 sequence (Q2M2I8 whole entry): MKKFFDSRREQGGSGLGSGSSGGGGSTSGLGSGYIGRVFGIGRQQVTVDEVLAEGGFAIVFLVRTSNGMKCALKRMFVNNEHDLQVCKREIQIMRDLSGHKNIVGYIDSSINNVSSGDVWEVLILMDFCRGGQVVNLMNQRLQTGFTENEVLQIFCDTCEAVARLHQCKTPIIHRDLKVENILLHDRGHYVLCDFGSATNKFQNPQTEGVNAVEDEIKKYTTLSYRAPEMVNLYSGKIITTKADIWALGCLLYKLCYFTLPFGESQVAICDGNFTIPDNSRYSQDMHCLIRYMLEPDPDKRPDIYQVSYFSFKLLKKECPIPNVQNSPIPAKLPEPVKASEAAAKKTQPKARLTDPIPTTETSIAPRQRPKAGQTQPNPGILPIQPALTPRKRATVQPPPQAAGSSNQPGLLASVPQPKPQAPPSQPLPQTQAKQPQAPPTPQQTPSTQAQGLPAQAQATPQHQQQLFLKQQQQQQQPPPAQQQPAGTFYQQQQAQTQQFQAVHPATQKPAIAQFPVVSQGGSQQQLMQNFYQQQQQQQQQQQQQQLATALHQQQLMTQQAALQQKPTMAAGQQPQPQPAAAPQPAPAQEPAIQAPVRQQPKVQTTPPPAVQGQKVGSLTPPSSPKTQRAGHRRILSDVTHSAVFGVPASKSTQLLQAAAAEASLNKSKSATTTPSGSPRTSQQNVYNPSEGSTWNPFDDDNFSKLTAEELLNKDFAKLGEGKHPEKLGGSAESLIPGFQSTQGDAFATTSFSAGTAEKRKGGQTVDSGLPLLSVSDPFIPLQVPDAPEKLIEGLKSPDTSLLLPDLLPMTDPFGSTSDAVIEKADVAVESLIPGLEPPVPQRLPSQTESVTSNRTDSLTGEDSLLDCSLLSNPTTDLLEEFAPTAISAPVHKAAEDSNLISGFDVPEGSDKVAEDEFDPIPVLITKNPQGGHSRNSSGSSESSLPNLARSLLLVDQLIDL
T1 sequence (Q2M2I8 whole entry): as above

| SMILES | IC50 (GST-Xa-hAAK1; listed as IC50 ranges) [nM] | IC50 (AAK1 (full length human); listed as IC50 ranges) [nM] | IC50 (GST-Xa-hAAK1; numeric values) [nM] | IC50 (AAK1 (full length human); numeric values) [nM] |
| --- | --- | --- | --- | --- |
| CC(=O)Nc1cc2c(cn1)COc1cc(OCC(N)CCC(F)(F)F)ccc1-2 (racemic) [Example 36, N-(8-((2-amino-5,5,5-trifluoropentyl)oxy)-5H-chromeno[3,4-c]pyridin-2-yl)acetamide] | 10 to 100 | 1 to 10 | – | – |
| CC(=O)Nc1cc2c(cn1)COc1cc(OCC(C)(N)CC(C)C)ccc1-2 (racemic) [Example 44, N-(8-(2-amino-2,4-dimethylpentyloxy)-5H-chromeno[3,4-c]pyridin-2-yl)acetamide] | 1 to 10 | 10 to 100 | – | – |
| CC(C)C[C@H](N)COc1ccc2c(c1)OC(C)c1cnccc1-2 (single isomer, unassigned) [Example 6a] | – | – | 27 | 25 |
| CC(C)C[C@H](N)COc1ccc2c(c1)OC(C)c1cnccc1-2 (single isomer, unassigned) [Example 6b] | – | – | 9.1 | 4.3 |
| CC(C)C[C@@H](N)COc1ccc2c(c1)OC(C)c1cnccc1-2 (single isomer, unassigned) [Example 7a] | – | – | 81 | > 300 |
| CC(C)C[C@H](N)COc1ccc2c(c1)OC(C1CC1)c1cnccc1-2 (single isomer, unassigned) [Example 8b] | 10 to 100 | 10 to 100 | – | – |
| CC(C)C[C@@H](N)COc1ccc2c(c1)OC(C1CC1)c1cnccc1-2 (single isomer, unassigned) [Example 9a] | 100 to 1000 | – | – | > 300 |
| CCC1Oc2cc(OC[C@@H](N)CC(C)C)ccc2-c2ccncc21 (single isomer, unassigned) [Example 10a] | 10 to 100 | 10 to 100 | – | – |
| CC(C)C[C@H](N)COc1ccc2c(c1)OCc1cnccc1-2 [Example 5, (S)-1-(5H-chromeno[3,4-c]pyridin-8-yloxy)-4-methylpentan-2-amine] | – | – | 3.3 | 8.4 |
| CC(C)C[C@H](N)COc1ccc2c(c1)oc(=O)c1cnccc12 [Example 11, (S)-8-(2-amino-4-methylpentyloxy)-5H-chromeno[3,4-c]pyridin-5-one] | – | – | 22 | 38 |
| CC(=O)Nc1nccc2c1COc1cc(OC[C@@H](N)CC(C)C)ccc1-2 [Example 12, (S)-N-(8-(2-amino-4-methylpentyloxy)-5H-chromeno[3,4-c]pyridin-4-yl)acetamide] | 10 to 100 | 10 to 100 | – | – |
| CC(C)C[C@H](N)COc1ccc2c(c1)OCc1c-2ccnc1N [Example 13, (S)-8-((2-amino-4-methylpentyl)oxy)-5H-chromeno[3,4-c]pyridin-4-amine] | 1 to 10 | 1 to 10 | – | – |
| CC(C)C[C@H](N)COc1cc2c(cc1Br)-c1ccncc1CO2 [Example 14, (S)-1-(9-bromo-5H-chromeno[3,4-c]pyridin-8-yloxy)-4-methylpentan-2-amine] | 1 to 10 | 1 to 10 | – | – |
| CC(C)C[C@H](N)COc1ccc2c(c1)OC(C)c1c-2ccnc1N (stereo partly drawn) [Example 15, 8-(((S)-2-amino-4-methylpentyl)oxy)-5-methyl-5H-chromeno[3,4-c]pyridin-4-amine] | 1 to 10 | 1 to 10 | – | – |
| CC(C)C[C@H](N)COc1ccc2c(c1)OCc1cncc(F)c1-2 [Example 16, (S)-1-((1-fluoro-5H-chromeno[3,4-c]pyridin-8-yl)oxy)-4-methylpentan-2-amine] | 1 to 10 | 1 to 10 | – | – |
| CC(=O)Nc1cc2c(cn1)COc1cc(OC[C@@H](N)CC(C)C)ccc1-2 [Example 18, (S)-N-(8-(2-amino-4-methylpentyloxy)-5H-chromeno[3,4-c]pyridin-2-yl)acetamide] | 1 to 10 | 10 to 100 | – | – |
| CC(=O)Nc1cc2c(cn1)COc1cc(OC[C@@H](N)CC(C)C)c(Cl)cc1-2 [Example 32, (S)-N-(8-((2-amino-4-methylpentyl)oxy)-9-chloro-5H-chromeno[3,4-c]pyridin-2-yl)acetamide] | – | – | 66 | > 100 |
| CC(C)C[C@H](N)COc1ccc2c(c1)OCc1cnc(N)cc1-2 [Example 33, (S)-8-(2-amino-4-methylpentyloxy)-5H-chromeno[3,4-c]pyridin-2-amine] | 10 to 100 | 10 to 100 | – | – |
| CC(=O)Nc1cc2c(cn1)COc1c-2ccc(OC[C@@H](N)CC(C)C)c1C [Example 35, (S)-N-(8-((2-amino-4-methylpentyl)oxy)-7-methyl-5H-chromeno[3,4-c]pyridin-2-yl)acetamide] | < 1 | < 1 | – | – |
| COc1c(OC[C@@H](N)CC(C)C)ccc2c1OCc1cnc(NC(C)=O)cc1-2 [Example 37, (S)-N-(8-((2-amino-4-methylpentyl)oxy)-7-methoxy-5H-chromeno[3,4-c]pyridin-2-yl)acetamide] | 10 to 100 | 1 to 10 | – | – |
| CC(=O)Nc1cc2c(cn1)COc1c-2ccc(OC[C@@H](N)CC(C)C)c1C(F)F [Example 38, (S)-N-(8-(2-amino-4-methylpentyloxy)-7-(difluoromethyl)-5H-chromeno[3,4-c]pyridin-2-yl)acetamide] | < 1 | 1 to 10 | – | – |
| CC(=O)Nc1cc2c(cn1)COc1c-2ccc(OC[C@@H](N)CC(C)C)c1F [Example 41, (S)-N-(8-((2-amino-4-methylpentyl)oxy)-7-fluoro-5H-chromeno[3,4-c]pyridin-2-yl)acetamide] | – | – | 0.3 | 2.1 |
| CC(C)C[C@H](N)COc1ccc2c(c1)OCc1cnc(NC(=O)C3CC3)cc1-2 [Example 42, (S)-N-(8-(2-amino-4-methylpentyloxy)-5H-chromeno[3,4-c]pyridin-2-yl)cyclopropanecarboxamide] | – | – | 0.5 | 2.1 |
| COC(=O)Nc1cc2c(cn1)COc1cc(OC[C@@H](N)CC(C)C)ccc1-2 [Example 43, (S)-methyl 8-(2-amino-4-methylpentyloxy)-5H-chromeno[3,4-c]pyridin-2-ylcarbamate] | 1 to 10 | 1 to 10 | – | – |
